These results are taken from ChEMBL document CHEMBL1122826, “4-[2-(Di-n-propylamino)ethyl]-2(3H)-indolone: a prejunctional dopamine receptor agonist” (J Med Chem, 1985).

This assay deals with Dopamine receptor. The experiment in a line: Inhibitory activity against constrictor response to electrical stimulation in the isolated perfused rabbit ear artery(REA) expressing dopamine receptor. Also on record: species or system Oryctolagus cuniculus.

`CCCN(CCC)CCc1cccc(O)c1` displayed a concentration for a half-maximal effect (EC50) of 700 nM. Next, `CCCN(CCC)CCc1cccc(NC(C)=O)c1`: over 1000 nM.

In general, EC50 refers to the concentration that produces a half-maximal response.
